Measured values published in ChEMBL document CHEMBL1142808, “O-Methylglucogalloyl esters: synthesis and evaluation of their antimycotic activity” (2005).
In brackets after ≈: the same amount, converted by molar mass.

Tests used:
Assay type in all cases: functional
[1] = Minimum inhibitory concentration against Issatchenkia orientalis DBVPG 6782; details: Pichia kudriavzevii
[2] = Minimum inhibitory concentration in association with mixture of alpha/beta O-methylgluco-2,3-digalloyl ester (49.8 µg/mL) against Issatchenkia orientalis DBVPG 6782; details: Pichia kudriavzevii
Candida albicans [3] = assay: Minimum inhibitory concentration in association with mixture of alpha/beta O-methylgluco-2,3-digalloyl ester (49.8 µg/mL) against Candida albicans DBVPG 6133
Candida albicans [4] = assay: Minimum inhibitory concentration against Candida albicans DBVPG 6133
Nakaseomyces glabratus [5] = assay: Minimum inhibitory concentration against Candida glabrata DBVPG 3828
Nakaseomyces glabratus [6] = assay: Minimum inhibitory concentration in association with mixture of alpha/beta O-methylgluco-2,3-digalloyl ester (49.8 µg/mL) against Candida glabrata DBVPG 3828
Candida albicans [7] = assay: Minimum inhibitory concentration in association with methyl gallate (36.8 µg/mL) against Candida albicans DBVPG 6133
Nakaseomyces glabratus [8] = assay: Minimum inhibitory concentration in association with methyl gallate (36.8 µg/mL) against Candida glabrata DBVPG 3828
Candida albicans [9] = assay: Minimum inhibitory concentration in association with gallic acid (34.0 µg/mL) against Candida albicans DBVPG 6133
Nakaseomyces glabratus [10] = assay: Minimum inhibitory concentration in association with gallic acid (34.0 µg/mL) against Candida glabrata DBVPG 3828
[11] = Minimum inhibitory concentration in association with gallic acid (34.0 µg/mL) against Issatchenkia orientalis DBVPG 6782; details: Pichia kudriavzevii
[12] = Minimum inhibitory concentration in association with methyl gallate (36.8 µg/mL) against Issatchenkia orientalis DBVPG 6782; details: Pichia kudriavzevii
Candida albicans [13] = assay: Minimum inhibitory concentration (mixture of alpha and beta) against Candida albicans DBVPG 6133
Nakaseomyces glabratus [14] = assay: Minimum inhibitory concentration (mixture of alpha and beta) against Candida glabrata DBVPG 3828
[15] = Minimum inhibitory concentration (mixture of alpha and beta) against Issatchenkia orientalis DBVPG 6782; details: Pichia kudriavzevii

| MIC (Candida albicans [13]) | MIC (Nakaseomyces glabratus [14]) | MIC [15] | SMILES | MIC [1] | MIC [2] | MIC (Candida albicans [3]) | MIC (Candida albicans [4]) | MIC (Nakaseomyces glabratus [5]) | MIC (Nakaseomyces glabratus [6]) | MIC (Candida albicans [7]) | MIC (Nakaseomyces glabratus [8]) | MIC (Candida albicans [9]) | MIC (Nakaseomyces glabratus [10]) | MIC [11] | MIC [12] |
| --- | --- | --- | --- | --- | --- | --- | --- | --- | --- | --- | --- | --- | --- | --- | --- |
|  |  |  | C[C@@H]1[C@H](O)[C@@H](C)/C=C/C=C/C=C/C=C/C=C/C=C/C=C/[C@H](O[C@@H]2O[C@H](C)[C@@H](O)[C@H](N)[C@@H]2O)C[C@@H]2O[C@](O)(C[C@@H](O)C[C@@H](O)[C@H](O)CC[C@@H](O)C[C@@H](O)CC(=O)O[C@H]1C)C[C@H](O)[C@H]2C(=O)O [AMPHOTERICIN B] | > 100 µg/mL | 2.05 µg/mL (≈ 2.22 µM) | 0.05 µg/mL (≈ 0.0541 µM) | 1.06 µg/mL (≈ 1.15 µM) | 1.06 µg/mL (≈ 1.15 µM) | 0.05 µg/mL (≈ 0.0541 µM) | 0.09 µg/mL (≈ 0.0974 µM) | 0.09 µg/mL (≈ 0.0974 µM) | 0.09 µg/mL (≈ 0.0974 µM) | 1 µg/mL (≈ 1.08 µM) | 8 µg/mL (≈ 8.66 µM) | 45 µg/mL (≈ 48.7 µM) |
| 1940 µg/mL (≈ 3890 µM) | > 4670 µg/mL | > 4670 µg/mL | COC1O[C@H](CO)[C@@H](O)[C@H](OC(=O)c2cc(O)c(O)c(O)c2)[C@H]1OC(=O)c1cc(O)c(O)c(O)c1 (stereo not given in full) |  |  |  |  |  |  |  |  |  |  |  |  |
